{
  "source": "the supplement of paper PMC10307832",
  "test_in_all_cases": "relative viability (nuclei count vs DMSO), 5 days (fraction); higher = more cells survive",
  "key": {"[1]": {"test_system": "A-427", "method_in_brief": "(§1)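 Lung cancer cell lines in 1536-well plates were dosed by pin tool the day after seeding, either with one drug alone or with a fixed anchor-drug dose plus five library-drug doses (not always all listed) in √10 steps. After 5 days, cells were fixed and their nuclei stained in one step (final 0.05% Triton X-100, 1% formaldehyde, 1 ug/ml Hoechst), then counted on 4× images. Relative viability is the nuclei count in treated wells divided by that in vehicle wells. Values are medians of duplicate plates.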"}, "[2]": {"test_system": "CAL-12T", "method_in_brief": "as §1"}, "[3]": {"test_system": "EPLC-272H", "method_in_brief": "as §1"}, "[4]": {"test_system": "HCC-15", "method_in_brief": "as §1"}, "[5]": {"test_system": "HCC-44", "method_in_brief": "as §1"}, "[6]": {"test_system": "LC-2-ad", "method_in_brief": "as §1"}, "[7]": {"test_system": "LCLC-97TM1", "method_in_brief": "as §1"}, "[8]": {"test_system": "NCI-H1395", "method_in_brief": "as §1"}, "[9]": {"test_system": "NCI-H1734", "method_in_brief": "as §1"}, "[10]": {"test_system": "NCI-H1792", "method_in_brief": "as §1"}, "[11]": {"test_system": "NCI-H1915", "method_in_brief": "as §1"}, "[12]": {"test_system": "NCI-H1975", "method_in_brief": "as §1"}, "[13]": {"test_system": "NCI-H2342", "method_in_brief": "as §1"}, "[14]": {"test_system": "NCI-H2347", "method_in_brief": "as §1"}, "[15]": {"test_system": "NCI-H2405", "method_in_brief": "as §1"}, "[16]": {"test_system": "NCI-H838", "method_in_brief": "as §1"}, "[17]": {"test_system": "SW 900", "method_in_brief": "as §1"}},
  "data": [
    {"compound": "Cc1csc(=NC2CCCCC2)n1/N=C/c1ccc(O)c(O)c1O", "note": "[MIM1] + NC(=O)Nc1cc(-c2cccc(F)c2)sc1C(=O)N[C@H]1CCCNC1 [AZD7762] (partner 0.2 µM)", "values": [
      {"measurement": "relative viability", "setting": "[1]; first compound 0.2 µM", "value": 0.706},
      {"measurement": "relative viability", "setting": "[1]; first compound 0.6325 µM", "value": 0.7},
      {"measurement": "relative viability", "setting": "[1]; first compound 2 µM", "value": 0.651},
      {"measurement": "relative viability", "setting": "[1]; first compound 6.325 µM", "value": 0.525},
      {"measurement": "relative viability", "setting": "[1]; first compound 20 µM", "value": 0.395},
      {"measurement": "relative viability", "setting": "[2]; first compound 0.2 µM", "value": 0.527},
      {"measurement": "relative viability", "setting": "[2]; first compound 0.6325 µM", "value": 0.575},
      {"measurement": "relative viability", "setting": "[2]; first compound 2 µM", "value": 0.605},
      {"measurement": "relative viability", "setting": "[2]; first compound 6.325 µM", "value": 0.436},
      {"measurement": "relative viability", "setting": "[2]; first compound 20 µM", "value": 0.332},
      {"measurement": "relative viability", "setting": "[3]; first compound 0.2 µM", "value": 0.224},
      {"measurement": "relative viability", "setting": "[3]; first compound 0.6325 µM", "value": 0.305},
      {"measurement": "relative viability", "setting": "[3]; first compound 2 µM", "value": 0.208},
      {"measurement": "relative viability", "setting": "[3]; first compound 6.325 µM", "value": 0.245},
      {"measurement": "relative viability", "setting": "[3]; first compound 20 µM", "value": 0.106},
      {"measurement": "relative viability", "setting": "[4]; first compound 0.2 µM", "value": 1.2},
      {"measurement": "relative viability", "setting": "[4]; first compound 2 µM", "value": 1.23},
      {"measurement": "relative viability", "setting": "[4]; first compound 6.325 µM", "value": 0.808},
      {"measurement": "relative viability", "setting": "[4]; first compound 20 µM", "value": 0.179},
      {"measurement": "relative viability", "setting": "[5]; first compound 0.2 µM", "value": 0.985},
      {"measurement": "relative viability", "setting": "[5]; first compound 0.6325 µM", "value": 0.985},
      {"measurement": "relative viability", "setting": "[5]; first compound 2 µM", "value": 0.961},
      {"measurement": "relative viability", "setting": "[5]; first compound 6.325 µM", "value": 0.947},
      {"measurement": "relative viability", "setting": "[5]; first compound 20 µM", "value": 0.521},
      {"measurement": "relative viability", "setting": "[6]; first compound 0.2 µM", "value": 0.804},
      {"measurement": "relative viability", "setting": "[6]; first compound 0.6325 µM", "value": 0.706},
      {"measurement": "relative viability", "setting": "[6]; first compound 2 µM", "value": 0.9},
      {"measurement": "relative viability", "setting": "[6]; first compound 6.325 µM", "value": 0.389},
      {"measurement": "relative viability", "setting": "[6]; first compound 20 µM", "value": 0.234},
      {"measurement": "relative viability", "setting": "[7]; first compound 0.2 µM", "value": 0.231},
      {"measurement": "relative viability", "setting": "[7]; first compound 0.6325 µM", "value": 0.243},
      {"measurement": "relative viability", "setting": "[7]; first compound 2 µM", "value": 0.196},
      {"measurement": "relative viability", "setting": "[7]; first compound 6.325 µM", "value": 0.145},
      {"measurement": "relative viability", "setting": "[7]; first compound 20 µM", "value": 0.0668},
      {"measurement": "relative viability", "setting": "[8]; first compound 0.2 µM", "value": 0.416},
      {"measurement": "relative viability", "setting": "[8]; first compound 0.6325 µM", "value": 0.409},
      {"measurement": "relative viability", "setting": "[8]; first compound 2 µM", "value": 0.338},
      {"measurement": "relative viability", "setting": "[8]; first compound 6.325 µM", "value": 0.387},
      {"measurement": "relative viability", "setting": "[8]; first compound 20 µM", "value": 0.337},
      {"measurement": "relative viability", "setting": "[9]; first compound 0.2 µM", "value": 0.524},
      {"measurement": "relative viability", "setting": "[9]; first compound 0.6325 µM", "value": 0.467},
      {"measurement": "relative viability", "setting": "[9]; first compound 2 µM", "value": 0.492},
      {"measurement": "relative viability", "setting": "[9]; first compound 6.325 µM", "value": 0.417},
      {"measurement": "relative viability", "setting": "[9]; first compound 20 µM", "value": 0.158},
      {"measurement": "relative viability", "setting": "[10]; first compound 0.2 µM", "value": 0.657},
      {"measurement": "relative viability", "setting": "[10]; first compound 0.6325 µM", "value": 0.565},
      {"measurement": "relative viability", "setting": "[10]; first compound 2 µM", "value": 0.733},
      {"measurement": "relative viability", "setting": "[10]; first compound 6.325 µM", "value": 0.559},
      {"measurement": "relative viability", "setting": "[10]; first compound 20 µM", "value": 0.858},
      {"measurement": "relative viability", "setting": "[11]; first compound 0.2 µM", "value": 0.691},
      {"measurement": "relative viability", "setting": "[11]; first compound 0.6325 µM", "value": 0.495},
      {"measurement": "relative viability", "setting": "[11]; first compound 2 µM", "value": 0.574},
      {"measurement": "relative viability", "setting": "[11]; first compound 6.325 µM", "value": 0.384},
      {"measurement": "relative viability", "setting": "[11]; first compound 20 µM", "value": 0.283},
      {"measurement": "relative viability", "setting": "[12]; first compound 0.2 µM", "value": 0.765},
      {"measurement": "relative viability", "setting": "[12]; first compound 0.6325 µM", "value": 0.628},
      {"measurement": "relative viability", "setting": "[12]; first compound 2 µM", "value": 0.697},
      {"measurement": "relative viability", "setting": "[12]; first compound 6.325 µM", "value": 0.549},
      {"measurement": "relative viability", "setting": "[12]; first compound 20 µM", "value": 0.572},
      {"measurement": "relative viability", "setting": "[13]; first compound 0.2 µM", "value": 0.414},
      {"measurement": "relative viability", "setting": "[13]; first compound 0.6325 µM", "value": 0.475},
      {"measurement": "relative viability", "setting": "[13]; first compound 2 µM", "value": 0.431},
      {"measurement": "relative viability", "setting": "[13]; first compound 6.325 µM", "value": 0.477},
      {"measurement": "relative viability", "setting": "[13]; first compound 20 µM", "value": 0.543},
      {"measurement": "relative viability", "setting": "[14]; first compound 0.2 µM", "value": 0.689},
      {"measurement": "relative viability", "setting": "[14]; first compound 0.6325 µM", "value": 0.779},
      {"measurement": "relative viability", "setting": "[14]; first compound 2 µM", "value": 0.797},
      {"measurement": "relative viability", "setting": "[14]; first compound 6.325 µM", "value": 0.623},
      {"measurement": "relative viability", "setting": "[14]; first compound 20 µM", "value": 0.57},
      {"measurement": "relative viability", "setting": "[15]; first compound 0.2 µM", "value": 0.835},
      {"measurement": "relative viability", "setting": "[15]; first compound 0.6325 µM", "value": 0.806},
      {"measurement": "relative viability", "setting": "[15]; first compound 2 µM", "value": 0.772},
      {"measurement": "relative viability", "setting": "[15]; first compound 6.325 µM", "value": 0.667},
      {"measurement": "relative viability", "setting": "[15]; first compound 20 µM", "value": 0.849},
      {"measurement": "relative viability", "setting": "[16]; first compound 0.2 µM", "value": 0.868},
      {"measurement": "relative viability", "setting": "[16]; first compound 0.6325 µM", "value": 0.947},
      {"measurement": "relative viability", "setting": "[16]; first compound 2 µM", "value": 0.751},
      {"measurement": "relative viability", "setting": "[16]; first compound 6.325 µM", "value": 0.84},
      {"measurement": "relative viability", "setting": "[16]; first compound 20 µM", "value": 0.691},
      {"measurement": "relative viability", "setting": "[17]; first compound 0.2 µM", "value": 0.669},
      {"measurement": "relative viability", "setting": "[17]; first compound 0.6325 µM", "value": 0.615},
      {"measurement": "relative viability", "setting": "[17]; first compound 2 µM", "value": 0.592},
      {"measurement": "relative viability", "setting": "[17]; first compound 6.325 µM", "value": 0.296},
      {"measurement": "relative viability", "setting": "[17]; first compound 20 µM", "value": 0.19}
    ]}
  ]
}
